HELM strings list units from the 5' end as sugar, base in round brackets, then linkage (d deoxyribose, r ribose, m 2'-O-methyl, p phosphodiester). Strings are as the collection lists them; they lack the last nucleoside at the 3' end of the tested compound. [moe] = 2'-O-(2-methoxyethyl) (MOE); [sp] = phosphorothioate linkage; [m5C] = 5-methylcytosine
Target: PRNP
Assay: mouse, dose not given
Details: ASO

Row | Substance | 3 h FOB score [score 0-7]
1 | RNA1{[moe](A)[sp].[moe]([m5C])[sp].[moe](T)p.[moe]([m5C])p.[moe](T)p.[moe](A)p.[moe](T)p.d(G)[sp].d(T)[sp].d(T)[sp].d(T)[sp].d(T)[sp].d([m5C])[sp].d([m5C])[sp].d(A)[sp].d(G)[sp].d(T)[sp].[moe](G)p.[moe]([m5C])}$$$$ (last 3' nucleoside missing) | 4.25
2 | RNA1{[moe](A)[sp].[moe]([m5C])p.[moe](A)p.[moe](A)p.[moe](T)[sp].d([m5C])[sp].d(T)[sp].d(G)[sp].d(T)[sp].d(T)[sp].d(G)[sp].d(T)[sp].d(G)[sp].d(G)[sp].d(T)[sp].[moe](T)p.[moe]([m5C])p.[moe](A)[sp].[moe](G)}$$$$ (last 3' nucleoside missing) | 6.5
3 | RNA1{[moe](A)[sp].[moe]([m5C])p.[moe](A)p.[moe](T)p.[moe](T)[sp].d(T)[sp].d(A)[sp].d(T)[sp].d(T)[sp].d(T)[sp].d([m5C])[sp].d(A)[sp].d(T)[sp].d(G)[sp].d(T)[sp].[moe](G)p.[moe]([m5C])p.[moe]([m5C])[sp].[moe](A)}$$$$ (last 3' nucleoside missing) | 3
4 | RNA1{[moe](A)[sp].[moe]([m5C])p.[moe](G)p.[moe](T)p.[moe]([m5C])[sp].d([m5C])[sp].d(A)[sp].d(T)[sp].d(T)[sp].d(T)[sp].d(T)[sp].d([m5C])[sp].d(T)[sp].d(G)[sp].d(T)[sp].[moe](G)p.[moe]([m5C])p.[moe](T)[sp].[moe](T)}$$$$ (last 3' nucleoside missing) | 1.75
5 | RNA1{[moe](A)[sp].[moe]([m5C])p.[moe](T)p.[moe](G)p.[moe](A)[sp].d(A)[sp].d(T)[sp].d(T)[sp].d(T)[sp].d(T)[sp].d([m5C])[sp].d(T)[sp].d([m5C])[sp].d(T)[sp].d([m5C])[sp].[moe]([m5C])p.[moe]([m5C])p.[moe](A)[sp].[moe](G)}$$$$ (last 3' nucleoside missing) | 0
6 | RNA1{[moe](A)[sp].[moe]([m5C])p.[moe](T)p.[moe](T)p.[moe](G)[sp].d(T)[sp].d([m5C])[sp].d(A)[sp].d(G)[sp].d(T)[sp].d(T)[sp].d(T)[sp].d(T)[sp].d(T)[sp].d([m5C])[sp].[moe]([m5C])p.[moe]([m5C])p.[moe]([m5C])[sp].[moe](A)}$$$$ (last 3' nucleoside missing) | 1
7 | RNA1{[moe](A)[sp].[moe]([m5C])p.[moe](T)p.[moe](T)p.[moe](G)p.[moe](T)p.d([m5C])[sp].d(A)[sp].d(G)[sp].d(T)[sp].d(T)[sp].d(T)[sp].d(T)[sp].d(T)[sp].d([m5C])[sp].d([m5C])[sp].[moe]([m5C])p.[moe]([m5C])[sp].[moe](A)}$$$$ (last 3' nucleoside missing) | 0.25
8 | RNA1{[moe](A)[sp].[moe]([m5C])p.[moe](T)p.[moe](T)p.d(G)[sp].d(T)[sp].d([m5C])[sp].d(A)[sp].d(G)[sp].d(T)[sp].d(T)[sp].d(T)[sp].d(T)[sp].d(T)[sp].[moe]([m5C])p.[moe]([m5C])p.[moe]([m5C])p.[moe]([m5C])[sp].[moe](A)}$$$$ (last 3' nucleoside missing) | 2.5
9 | RNA1{[moe](A)[sp].[moe]([m5C])p.[moe](T)p.[moe]([m5C])p.[moe](T)[sp].d(A)[sp].d(T)[sp].d(G)[sp].d(T)[sp].d(T)[sp].d(T)[sp].d(T)[sp].d([m5C])[sp].[moe]([m5C])p.[moe](A)p.[moe](G)[sp].[moe](T)}$$$$ (last 3' nucleoside missing) | 4.5
10 | RNA1{[moe](A)[sp].[moe]([m5C])p.[moe](T)p.[moe]([m5C])p.[moe](T)[sp].d(A)[sp].d(T)[sp].d(G)[sp].d(T)[sp].d(T)[sp].d(T)[sp].d(T)[sp].d([m5C])[sp].d([m5C])[sp].d(A)[sp].[moe](G)p.[moe](T)p.[moe](G)[sp].[moe]([m5C])}$$$$ (last 3' nucleoside missing) | 2
11 | RNA1{[moe](A)[sp].[moe]([m5C])p.[moe](T)p.[moe]([m5C])p.[moe](T)p.[moe](A)p.d(T)[sp].d(G)[sp].d(T)[sp].d(T)[sp].d(T)[sp].d(T)[sp].d([m5C])[sp].d([m5C])[sp].d(A)[sp].d(G)[sp].[moe](T)p.[moe](G)[sp].[moe]([m5C])}$$$$ (last 3' nucleoside missing) | 1.25
12 | RNA1{[moe](A)[sp].[moe]([m5C])p.[moe](T)p.[moe]([m5C])p.[moe](T)p.d(A)[sp].d(T)[sp].d(G)[sp].d(T)[sp].d(T)[sp].d(T)[sp].d(T)[sp].d([m5C])[sp].d([m5C])[sp].[moe](A)[sp].[moe](G)p.[moe](T)p.[moe](G)}$$$$ (last 3' nucleoside missing) | 2.25
13 | RNA1{[moe](A)[sp].[moe]([m5C])p.[moe](T)p.[moe]([m5C])p.d(T)[sp].d(A)[sp].d(T)[sp].d(G)[sp].d(T)[sp].d(T)[sp].d(T)[sp].d(T)[sp].d([m5C])[sp].d([m5C])[sp].[moe](A)p.[moe](G)p.[moe](T)p.[moe](G)[sp].[moe]([m5C])}$$$$ (last 3' nucleoside missing) | 1.5
14 | RNA1{[moe](A)[sp].[moe]([m5C])p.[moe](T)p.d([m5C])[sp].d(T)[sp].d(A)[sp].d(T)[sp].d(G)[sp].d(T)[sp].d(T)[sp].d(T)[sp].d(T)[sp].d([m5C])[sp].[moe]([m5C])p.[moe](A)p.[moe](G)p.[moe](T)p.[moe](G)[sp].[moe]([m5C])}$$$$ (last 3' nucleoside missing) | 1.5
15 | RNA1{[moe](A)[sp].[moe]([m5C])p.[moe]([m5C])p.[moe](A)p.[moe](T)[sp].d(A)[sp].d(T)[sp].d(A)[sp].d([m5C])[sp].d([m5C])[sp].d(A)[sp].d(T)[sp].d(G)[sp].d(T)[sp].d(A)[sp].[moe]([m5C])p.[moe](A)p.[moe](G)[sp].[moe](T)}$$$$ (last 3' nucleoside missing) | 4.75
16 | RNA1{[moe](G)[sp].[moe](A)p.[moe](G)p.[moe](T)p.[moe](G)[sp].d(A)[sp].d(A)[sp].d(T)[sp].d(T)[sp].d(A)[sp].d(T)[sp].d(T)[sp].d(T)[sp].d(T)[sp].d([m5C])[sp].[moe](T)p.[moe](T)p.[moe]([m5C])[sp].[moe](T)}$$$$ (last 3' nucleoside missing) | 2
17 | RNA1{[moe](G)[sp].[moe](A)p.[moe](G)p.[moe]([m5C])p.[moe](A)[sp].d(A)[sp].d(T)[sp].d(A)[sp].d(T)[sp].d(A)[sp].d(T)[sp].d(T)[sp].d([m5C])[sp].d(A)[sp].d([m5C])[sp].[moe]([m5C])p.[moe](A)p.[moe](A)[sp].[moe](A)}$$$$ (last 3' nucleoside missing) | 2.5
18 | RNA1{[moe](G)[sp].[moe](A)p.[moe](T)p.[moe](T)p.[moe](G)[sp].d(T)[sp].d([m5C])[sp].d(T)[sp].d([m5C])[sp].d([m5C])[sp].d([m5C])[sp].d(T)[sp].d(A)[sp].d(T)[sp].d(T)[sp].[moe]([m5C])p.[moe](T)p.[moe](T)[sp].[moe](T)}$$$$ (last 3' nucleoside missing) | 5.5
19 | RNA1{[moe](G)[sp].[moe](G)p.[moe](A)p.[moe](A)p.[moe](T)[sp].d(G)[sp].d([m5C])[sp].d([m5C])[sp].d(A)[sp].d([m5C])[sp].d(A)[sp].d(T)[sp].d(A)[sp].d(T)[sp].d(A)[sp].[moe](G)p.[moe](G)p.[moe](G)[sp].[moe](T)}$$$$ (last 3' nucleoside missing) | 4
20 | RNA1{[moe](G)[sp].[moe](G)p.[moe](G)p.[moe](A)p.[moe](T)[sp].d(G)[sp].d(A)[sp].d(T)[sp].d([m5C])[sp].d(T)[sp].d(G)[sp].d([m5C])[sp].d(A)[sp].d(A)[sp].d(T)[sp].[moe](T)p.[moe](G)p.[moe](T)[sp].[moe](T)}$$$$ (last 3' nucleoside missing) | 4
21 | RNA1{[moe](G)[sp].[moe](G)p.[moe](T)p.[moe](G)p.[moe](A)[sp].d(T)[sp].d(T)[sp].d(T)[sp].d(T)[sp].d(T)[sp].d(T)[sp].d([m5C])[sp].d([m5C])[sp].d(T)[sp].d(T)[sp].[moe](T)p.[moe]([m5C])p.[moe](T)[sp].[moe](T)}$$$$ (last 3' nucleoside missing) | 1
22 | RNA1{[moe](G)[sp].[moe](G)p.[moe](T)p.[moe](T)p.[moe](A)[sp].d(G)[sp].d([m5C])[sp].d(T)[sp].d(T)[sp].d(T)[sp].d(T)[sp].d(T)[sp].d(T)[sp].d(T)[sp].d([m5C])[sp].[moe](A)p.[moe]([m5C])p.[moe](T)[sp].[moe](G)}$$$$ (last 3' nucleoside missing) | 4.75
23 | RNA1{[moe](G)[sp].[moe](G)p.[moe](T)p.[moe](T)p.[moe](A)[sp].d([m5C])[sp].d(A)[sp].d(T)[sp].d(A)[sp].d(A)[sp].d(T)[sp].d(G)[sp].d(T)[sp].d(T)[sp].d([m5C])[sp].[moe](A)p.[moe](T)p.[moe](T)[sp].[moe](T)}$$$$ (last 3' nucleoside missing) | 5
24 | RNA1{[moe](G)[sp].[moe](G)p.[moe](T)p.[moe](T)p.[moe](A)p.[moe]([m5C])p.d(A)[sp].d(T)[sp].d(A)[sp].d(A)[sp].d(T)[sp].d(G)[sp].d(T)[sp].d(T)[sp].d([m5C])[sp].d(A)[sp].[moe](T)p.[moe](T)[sp].[moe](T)}$$$$ (last 3' nucleoside missing) | 3.75
25 | RNA1{[moe](G)[sp].[moe](G)p.[moe](T)p.[moe](T)p.[moe](T)[sp].d(T)[sp].d(T)[sp].d(G)[sp].d(A)[sp].d([m5C])[sp].d(A)[sp].d(A)[sp].d(T)[sp].d(T)[sp].d(A)[sp].[moe](T)p.[moe](G)p.[moe](A)[sp].[moe](G)}$$$$ (last 3' nucleoside missing) | 5
26 | RNA1{[moe](G)[sp].[moe](G)p.[moe](T)p.[moe](T)p.[moe](T)[sp].d(T)[sp].d(T)[sp].d(G)[sp].d(G)[sp].d([m5C])[sp].d(T)[sp].d(T)[sp].d(A)[sp].d([m5C])[sp].d(T)[sp].[moe]([m5C])p.[moe](G)p.[moe](G)[sp].[moe]([m5C])}$$$$ (last 3' nucleoside missing) | 4
